Reference: patent US10227324B2 (Shanghai Haiyan Pharmaceutical Technology Co., Ltd., priority 2014, dated 2019)
Where two headings read alike, the source gives them in different places.

Legend:
[1] = target: T1, PI3K-β kinase (p110β/p85α) (Homo sapiens, UniProt P42338); assay: Determination of PI3K kinase activity (ADP Transcreener, fluorescence polarization); format: biochemical; details: Table 1; ATP 10 μM; read-out: PI3K-β/nM (IC50 of inhibitory activity against PI3K kinase)
T1 construct: purchased Millipore 14-603
T1 sequence (P42338 whole entry): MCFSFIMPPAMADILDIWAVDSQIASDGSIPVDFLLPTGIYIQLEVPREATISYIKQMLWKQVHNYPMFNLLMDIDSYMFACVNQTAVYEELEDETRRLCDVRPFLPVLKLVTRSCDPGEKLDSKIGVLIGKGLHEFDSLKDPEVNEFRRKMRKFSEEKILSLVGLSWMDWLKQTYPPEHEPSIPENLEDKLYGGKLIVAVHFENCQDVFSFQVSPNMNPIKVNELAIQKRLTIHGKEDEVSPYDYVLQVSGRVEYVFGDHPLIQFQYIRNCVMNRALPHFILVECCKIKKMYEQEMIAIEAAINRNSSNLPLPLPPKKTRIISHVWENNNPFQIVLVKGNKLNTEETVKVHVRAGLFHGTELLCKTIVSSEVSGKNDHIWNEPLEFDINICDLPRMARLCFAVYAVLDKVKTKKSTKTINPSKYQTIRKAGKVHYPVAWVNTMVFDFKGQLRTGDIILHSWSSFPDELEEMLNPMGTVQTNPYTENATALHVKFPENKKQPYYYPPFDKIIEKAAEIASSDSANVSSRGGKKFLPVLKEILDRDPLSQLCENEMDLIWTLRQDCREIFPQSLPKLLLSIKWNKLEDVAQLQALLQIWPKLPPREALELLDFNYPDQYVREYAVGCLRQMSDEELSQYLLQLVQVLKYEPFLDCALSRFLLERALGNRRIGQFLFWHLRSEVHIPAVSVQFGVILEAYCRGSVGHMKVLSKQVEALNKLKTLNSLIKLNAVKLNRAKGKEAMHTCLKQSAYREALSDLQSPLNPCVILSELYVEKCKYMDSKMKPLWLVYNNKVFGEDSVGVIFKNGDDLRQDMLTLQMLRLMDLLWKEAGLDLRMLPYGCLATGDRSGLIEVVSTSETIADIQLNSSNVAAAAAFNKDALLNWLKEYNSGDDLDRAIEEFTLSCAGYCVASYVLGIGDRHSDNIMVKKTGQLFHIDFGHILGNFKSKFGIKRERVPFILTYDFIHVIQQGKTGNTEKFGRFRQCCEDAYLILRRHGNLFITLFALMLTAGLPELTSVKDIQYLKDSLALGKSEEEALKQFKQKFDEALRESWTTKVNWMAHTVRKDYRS
T1 sequence (P27986 whole entry partner): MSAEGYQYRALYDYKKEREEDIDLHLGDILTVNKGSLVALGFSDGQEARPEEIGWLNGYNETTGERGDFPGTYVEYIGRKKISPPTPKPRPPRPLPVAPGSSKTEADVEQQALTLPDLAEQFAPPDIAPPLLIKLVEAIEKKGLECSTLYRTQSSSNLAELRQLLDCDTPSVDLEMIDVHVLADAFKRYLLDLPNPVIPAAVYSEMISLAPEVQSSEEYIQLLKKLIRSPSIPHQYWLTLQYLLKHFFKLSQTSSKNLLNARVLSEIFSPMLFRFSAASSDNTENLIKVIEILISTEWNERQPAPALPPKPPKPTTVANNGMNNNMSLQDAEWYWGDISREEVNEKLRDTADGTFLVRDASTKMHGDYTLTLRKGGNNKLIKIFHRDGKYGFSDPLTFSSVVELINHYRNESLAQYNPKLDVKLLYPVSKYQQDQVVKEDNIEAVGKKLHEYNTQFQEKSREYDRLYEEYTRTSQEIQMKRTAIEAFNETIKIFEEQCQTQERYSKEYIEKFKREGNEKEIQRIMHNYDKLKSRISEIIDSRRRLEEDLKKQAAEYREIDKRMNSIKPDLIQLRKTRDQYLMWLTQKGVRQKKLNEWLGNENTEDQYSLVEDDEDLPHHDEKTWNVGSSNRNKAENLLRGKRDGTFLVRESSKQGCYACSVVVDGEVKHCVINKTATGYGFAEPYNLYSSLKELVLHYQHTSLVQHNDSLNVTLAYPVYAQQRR

[2] = target: T2, PI3K-δ kinase (p110δ/p85α) (Homo sapiens, UniProt O00329); assay: as above; format: biochemical; details: Table 1; ATP 10 μM; read-out: PI3K-δ/nM (IC50 of inhibitory activity against PI3K kinase)
T2 construct: purchased Millipore 14-604M
T2 sequence (O00329 whole entry): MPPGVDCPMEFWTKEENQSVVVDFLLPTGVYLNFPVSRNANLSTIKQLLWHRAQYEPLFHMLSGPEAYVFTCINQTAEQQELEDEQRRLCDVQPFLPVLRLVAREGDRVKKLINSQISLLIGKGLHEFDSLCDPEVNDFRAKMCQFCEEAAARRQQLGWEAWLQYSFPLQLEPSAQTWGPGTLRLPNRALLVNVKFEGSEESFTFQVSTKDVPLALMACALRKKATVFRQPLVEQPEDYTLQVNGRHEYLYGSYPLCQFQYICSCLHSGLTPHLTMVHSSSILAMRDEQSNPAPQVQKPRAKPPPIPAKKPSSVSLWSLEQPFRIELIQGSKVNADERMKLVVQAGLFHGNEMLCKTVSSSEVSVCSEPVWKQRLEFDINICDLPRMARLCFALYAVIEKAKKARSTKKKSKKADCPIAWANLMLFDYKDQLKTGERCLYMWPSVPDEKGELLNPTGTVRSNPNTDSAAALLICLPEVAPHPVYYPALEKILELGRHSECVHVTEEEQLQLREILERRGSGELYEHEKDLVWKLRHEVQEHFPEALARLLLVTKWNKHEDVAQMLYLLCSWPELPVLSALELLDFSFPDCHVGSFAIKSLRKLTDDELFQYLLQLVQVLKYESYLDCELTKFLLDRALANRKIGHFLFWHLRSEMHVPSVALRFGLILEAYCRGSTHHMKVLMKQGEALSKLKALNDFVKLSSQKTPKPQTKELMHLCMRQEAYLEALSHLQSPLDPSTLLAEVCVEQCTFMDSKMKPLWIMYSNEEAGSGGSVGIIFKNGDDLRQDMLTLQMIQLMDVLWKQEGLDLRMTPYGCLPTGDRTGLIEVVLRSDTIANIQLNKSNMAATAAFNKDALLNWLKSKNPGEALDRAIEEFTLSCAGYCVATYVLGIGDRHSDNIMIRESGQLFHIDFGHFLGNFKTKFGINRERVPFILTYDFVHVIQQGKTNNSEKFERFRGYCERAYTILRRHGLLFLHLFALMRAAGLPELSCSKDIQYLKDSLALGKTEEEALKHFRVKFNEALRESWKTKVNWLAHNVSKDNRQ
T2 sequence (P27986 whole entry partner): as the sequence (P27986 whole entry partner) above

PI3K-γ kinase (p110γ) = target: T3, PI3K-γ kinase (p110γ) (Homo sapiens, UniProt P48736); assay: as above; format: biochemical; details: Table 1; ATP 10 μM; read-out: PI3K-γ/nM (IC50 of inhibitory activity against PI3K kinase)
T3 construct: purchased Invitrogen PV4786
T3 sequence (P48736 whole entry): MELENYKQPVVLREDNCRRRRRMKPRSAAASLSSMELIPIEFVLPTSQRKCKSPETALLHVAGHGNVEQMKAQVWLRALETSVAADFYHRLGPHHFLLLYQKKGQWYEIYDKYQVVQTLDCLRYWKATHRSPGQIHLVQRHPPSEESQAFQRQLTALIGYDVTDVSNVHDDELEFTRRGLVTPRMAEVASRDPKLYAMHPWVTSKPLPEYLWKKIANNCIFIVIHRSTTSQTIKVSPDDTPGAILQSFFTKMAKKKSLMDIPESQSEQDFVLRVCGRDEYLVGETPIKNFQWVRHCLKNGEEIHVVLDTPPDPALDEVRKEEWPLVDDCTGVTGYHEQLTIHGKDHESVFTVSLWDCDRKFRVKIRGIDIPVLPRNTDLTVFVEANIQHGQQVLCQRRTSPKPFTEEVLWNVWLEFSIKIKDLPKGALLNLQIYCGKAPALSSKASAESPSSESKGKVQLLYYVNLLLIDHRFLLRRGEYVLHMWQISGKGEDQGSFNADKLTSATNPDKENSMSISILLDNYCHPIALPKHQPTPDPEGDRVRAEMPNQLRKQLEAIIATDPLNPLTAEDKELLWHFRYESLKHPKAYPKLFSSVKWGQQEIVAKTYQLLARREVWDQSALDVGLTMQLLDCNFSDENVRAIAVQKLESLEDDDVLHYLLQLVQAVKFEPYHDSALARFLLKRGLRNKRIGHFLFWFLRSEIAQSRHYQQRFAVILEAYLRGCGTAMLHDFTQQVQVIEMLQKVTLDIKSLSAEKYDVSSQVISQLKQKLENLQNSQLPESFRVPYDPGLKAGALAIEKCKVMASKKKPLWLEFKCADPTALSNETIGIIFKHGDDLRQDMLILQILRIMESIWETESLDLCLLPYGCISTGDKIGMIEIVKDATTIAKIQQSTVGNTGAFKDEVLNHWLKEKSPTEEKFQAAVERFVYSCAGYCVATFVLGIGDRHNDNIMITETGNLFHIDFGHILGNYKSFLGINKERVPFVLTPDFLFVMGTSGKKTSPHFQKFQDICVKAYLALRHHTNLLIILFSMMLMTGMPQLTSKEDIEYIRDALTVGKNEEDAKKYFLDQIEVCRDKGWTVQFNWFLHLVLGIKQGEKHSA
Outline: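 Each 25 μL reaction held PI3K enzyme (p110α/p85α 3 ng, p110β/p85α 60 ng, p110δ/p85α 90 ng, or p110γ 100 ng), 10 μM ATP, 30 μM PIP2:PS and 2% DMSO, incubated 1 h at 25 °C. Compounds were tested in duplicate across a 3-fold series, 0.00046–1 μM as prepared. ADP was detected by Transcreener fluorescence polarization, quantified against an ADP/ATP standard curve, and IC50 fitted.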

NIH3T3 cells = assay: Cytotoxicity by MTT assay, NIH3T3; format: cell-based; details: cytotoxicity class, read-out: NIH3T3 cell (IC50/nM)
Protocol: The MTT assay procedure and steps were carried out as well known to those skilled in the art, and all the reagents used in the methods were commercially available.
The cells in logarithmic growth phase were digested with 0.25% EDTA trypsin (Gibco, 25200-056) and resuspended in fresh medium. 90 μL of the cell suspension was inoculated into a 96-well cell culture plate (BD Faclon 353072) with a suitable cell density and cultured at 37° C. under 5% CO2. After the cells adhered, 10 μL of the test compound at different concentrations (0.0046-10 μM, 8 concentration points) was added and incubated for another 72 h. 10 μL of MTT (5 mg/mL PBS solution) (Sigma, M5655) was added to react for 4 h. The absorbance at 492 nm was measured by using Thermo Scientific Multiskan MK3 microplate reader and IC50 was calculated using XLFIT 5.0 software (UK IDBS).

[3] = Metabolism stability assay in liver microsomes; format: in vitro ADME, mouse; details: liver microsomal metabolism in mice
Protocol: Buffer A: 1 L solution of 100 mM potassium dihydrogen phosphate containing 1 mM EDTA (Sigma, V900157-100G) was prepared. Buffer B: 1 L solution of 100 mM dipotassium hydrogen phosphate containing 1 mM EDTA was prepared. Buffer C: 700 mL of buffer B was taken out and titrated with buffer A to pH 7.4.
2.1 10 μl of 10 mM compound to be tested and 10 μl of 10 mM ketanserin were taken out and 190 μl of pure acetonitrile was added to each of them to prepare 500 μM compound to be tested and ketanserin, respectively.
2.2 20 μl (20 mg/mL) of liver microsomes (XENOTECH, H0610) stock solution was added to 513.4 μl of buffer C on wet ice. 0.75 mg/mL liver microsomal solution was obtained.
2.3 1.5 μl of each of the above-mentioned compound to be tested and ketanserin solution was added to 498.5 μl of liver microsomal solution (0.7 5 mg/mL) respectively on wet ice. 1.5 μM mixed solution of compound to be tested and 1.5 μM mixed solution of ketanserin were obtained.
2.4 At the time points 0, 5, 15, 30, 45, and 60 min, 30 μl of the mixed solution of compound to be tested and 30 μl of the mixed solution of ketanserin were dispensed into the reaction plate on wet ice, respectively.
2.5 5 mg reduced coenzyme II (Roche, 10621706001) was weighed and dissolved in 1 mL of buffer C. 6 mM reduced coenzyme II solution was obtained. The reduced coenzyme II solution was dispensed into the reaction plate.
2.6 Imipramine was dissolved to give a 10 mM solution. 10 μl imipramine solution was added to 100 mL of blank acetonitrile to generate the internal reference.
2.7 At 0 min, 135 μL of iced acetonitrile (Merck, UN 1648) containing the internal reference was added to each well and then 15 μL of buffer C was added.
2.8 The reaction plate was placed into a 37° C. water bath incubator for 5 min. In the reaction plate, 15 μL of reduced coenzyme II solution was added to each well to initiate the reaction, and the time keeping was started. At the time points of 5, 15, 30, 45, and 60 min, 135 μL of iced acetonitrile containing the internal reference was added to each well to terminate the reaction.
2.9 The reaction plate was sealed with an aluminum film, placed on a vibration mixer and shaken at 500 rpm for 5 min. The plate was then centrifuged in a centrifuge at 3750 rp for 15 min.
2.10 The sample was diluted with pure water in accordance with the ratio of 1:1 and detected by LC/MS.
Half-life: 0.693/K (the slope by plotting based on the incubation time and logarithm of the concentration value)
Clearance ratio: (0.693/half-life)*(1/protein concentration (0.5 mg/mL))*(proportional factor)
Wherein, the K value and the proportional factor were calculated by those skilled in the art according to the methods described in the prior art and contained in the instructions of the liver microsome product.

[4] = target: T4, PI3K-α kinase (p110α/p85α) (Homo sapiens, UniProt P42336); assay: Determination of PI3K kinase activity (ADP Transcreener, fluorescence polarization); format: biochemical; details: ATP 10 μM
T4 construct: purchased Invitrogen PV4788
T4 sequence (P42336 whole entry): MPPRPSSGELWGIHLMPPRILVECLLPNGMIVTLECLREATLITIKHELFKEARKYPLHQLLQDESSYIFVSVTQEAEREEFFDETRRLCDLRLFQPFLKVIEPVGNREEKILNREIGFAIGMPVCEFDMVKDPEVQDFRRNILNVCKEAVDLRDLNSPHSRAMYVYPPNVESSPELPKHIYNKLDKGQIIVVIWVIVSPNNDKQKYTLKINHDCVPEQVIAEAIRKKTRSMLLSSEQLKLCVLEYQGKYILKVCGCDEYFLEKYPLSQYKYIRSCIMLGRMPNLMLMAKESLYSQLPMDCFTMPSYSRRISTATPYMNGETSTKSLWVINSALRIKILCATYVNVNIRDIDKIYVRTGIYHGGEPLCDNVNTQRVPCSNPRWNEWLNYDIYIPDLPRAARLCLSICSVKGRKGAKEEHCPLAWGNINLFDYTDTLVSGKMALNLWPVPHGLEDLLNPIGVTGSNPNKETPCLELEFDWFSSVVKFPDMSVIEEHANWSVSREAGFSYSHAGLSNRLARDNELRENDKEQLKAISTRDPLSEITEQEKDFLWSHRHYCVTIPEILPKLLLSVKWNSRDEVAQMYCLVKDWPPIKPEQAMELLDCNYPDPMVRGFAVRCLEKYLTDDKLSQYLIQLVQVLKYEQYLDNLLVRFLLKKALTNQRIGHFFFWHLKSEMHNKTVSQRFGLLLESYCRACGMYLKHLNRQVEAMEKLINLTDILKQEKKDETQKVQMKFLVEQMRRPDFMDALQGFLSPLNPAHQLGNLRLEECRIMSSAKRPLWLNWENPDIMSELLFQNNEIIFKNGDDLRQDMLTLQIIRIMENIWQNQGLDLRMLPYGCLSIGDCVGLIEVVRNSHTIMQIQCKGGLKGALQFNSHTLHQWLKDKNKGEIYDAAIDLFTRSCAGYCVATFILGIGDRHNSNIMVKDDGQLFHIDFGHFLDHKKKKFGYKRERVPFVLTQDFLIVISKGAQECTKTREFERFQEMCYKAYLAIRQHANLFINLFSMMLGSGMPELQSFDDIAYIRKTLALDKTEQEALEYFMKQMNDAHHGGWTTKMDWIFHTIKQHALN
T4 sequence (P27986 whole entry partner): as the sequence (P27986 whole entry partner) above

[5] = system: Akt phosphorylation (Ser473-p-Akt) in PC-3 cells; assay: Inhibition of p-Akt phosphorylation level in PC-3 cells (cell level fluorescence imaging); format: cell-based; details: Akt phosphorylation in PC-3 cells, 2 hours incubation; read-out: PC-3 cell (IC50/nM)
Protocol: This experiment was performed by cell level fluorescence image processing method.
Triton X-100: 10% aqueous Triton X-100 solution (Sigma T8787-100 mL) was prepared, stored at 4° C. and diluted by 1:100 to give 0.1% Triton X-100 aqueous solution for use in the experiment.
Prodium Iodide (PI): 1 mg/mL (1.5 mM) PI (Sigma P4170) storage solution was prepared with PBS and stored at −25° C. in the dark. For use, the PI storage solution was diluted with PBS by 1:1000 to give a 1.5 μM solution and used in dark.
PC-3 cells in logarithmic growth phase were digested with 0.25% EDTA trypsin. 3000 cells/90 μL were seeded in a 96-well plate (BD 356692) and cultured at 37° C. and 5% CO2. After the cells adhered, 10 μL of the compound to be tested which was gradiently diluted 3 times (0.0046 to 10 μM, 8 concentration points, in duplicate) was added and incubated for 2 hours, followed by addition of 100 μL of 4% paraformaldehyde (DINGGUO AR-0211) and incubated at room temperature for 45 minutes. Then 100 μL of 0.1% Triton X-100 solution was added and incubated for another 30 minutes.
Triton X-100 solution was removed and the cells were rinsed with 200 μl of PBS twice (300 rpm vibration for 1 minute). The blocking solution (1% BSA solution in PBS) (Genview FA016-100G) was added and incubated at room temperature for 2 hours. The plate was rinsed with PBS once (300 rpm, 1 min) and 30 μL of Ser473-p-Akt antibody (cell signaling 4060L) diluted with 0.1% BSA was added and incubated overnight at 4° C. Ser473-p-Akt antibody was removed and the plate was rinsed with PBS twice (300 rpm, 1 minute). 35 μL of Alexa Flour 488 donkey anti-rabbit IgG (Invitrogen A21206) was added and incubated at room temperature for 1.5 hours. The plate was rinsed with PBS twice (300 rpm, 1 minute) and 35 μL of 1.5 μM PI was added and incubated at room temperature for 0.5 h. The fluorescence intensity was measured with Acumen eX3 (TTP LabTech).
10 μM BEZ235 (Selleck S1009) treatment group was negative control and DMSO treatment group was positive control. Inhibition ratio %=[1−(the mean value of the fluorescence intensity of the compound to be tested−the mean value of the fluorescence intensity of the negative control group)/(the mean value of the fluorescence intensity of the positive control group−the mean value of the fluorescence intensity of the negative control group)]×100%

T47D cells = assay: Cell inhibitory activity detected by MTT assay, T47D; format: cell-based; details: 72 h, read-out: T47D cell (IC50/nM), cell growth inhibition

Compound | IC50 [1] [nM] | IC50 [2] [nM] | IC50 (PI3K-γ kinase (p110γ)) [nM] | IC50 (NIH3T3 cells; Mus musculus, NIH3T3, 72 h) [nM] | Clearance ratio (mL/min/kg) mouse [3] [mL/min/kg] | IC50 ([4]; Table 2, read-out: PI3K-α/nM (IC50 of inhibitory activity against PI3K-α kinase)) [nM] | IC50 [5] [nM] | IC50 (T47D cells) [nM] | IC50 (NIH3T3 cells; 72 h) [nM] | IC50 ([4]; Table 1, read-out: PI3K-α/nM (IC50 of inhibitory activity against PI3K kinase)) [nM]
CC(C)(c1cc(-c2cnc(N)cc2C(F)(F)F)nc(N2CCOCC2)n1)S(=O)(=O)c1ccccc1 [Compound S-21] | 832 | 214 | 843 | 1000 to 3000 | 6337.31 | – | – | – | – | –
CC(C)(O)c1cc(-c2cnc(N)cc2C(F)(F)F)nc(N2CCOCC2)n1 [Compound S-50, 2-(6-(6-amino-4-(trifluoromethyl)pyridin-3-yl)-2-morpholin-4-yl)propan-2-ol] | – | – | – | – | – | 39 | 39 | 449 | 1000 to 3000 | –
Nc1cc(C(F)(F)F)c(-c2cc(C3(S(=O)(=O)c4ccc(F)cc4)CC3)nc(N3CCOCC3)n2)cn1 [Compound S-59] | 721 | 235 | 813 | 1000 to 3000 | 7163.43 | – | – | – | – | 37
